Results published in patent US20170107212A1, “NOVEL COMPOUNDS” (Bayer Pharma Aktiengesellschaft, priority 2014, published 2017).
Structures can show the parent of a compound that is named as a salt.

Key:
[1] = tested on: constitutive active colorectal cancer cell (CRC) Wnt pathway, HCT116 TOPFlash; assay: Cellular reporter assay, HCT116 Super TopFlash (constitutive active Wnt pathway), luciferase expression; type: cell-based; settings: HCT116 Super TopFlash reporter cells, 36 hours incubation, dilution series 50 μM to 15 nM
Procedure: In order to discover and characterize small molecules which inhibit the constitutive active colorectal cancer cell (CRC) Wnt pathway, a cellular reporter assay was employed. The corresponding assay cell was generated by transfection of the colorectal cancer cell line HCT116 (ATCC, #CCL-247) with the Super TopFlash vector (Morin, Science 275, 1997, 1787-1790; Molenaar et al., Cell 86 (3), 1996, 391-399). The HCT116 cell line is cultivated at 37° C. and 5% CO2 in DMEM/F-12 (Life Technologies, #11320-074), supplemented with 2 mM glutamine, 20 mM HEPES, 1.4 mM pyruvate, 0.15% Na-bicarbonate and 10% foetal bovine serum (GIBCO, #10270), this cancer cell line is pathophysiological relevant since it carries a deletion of position S45 in the β-catenin gene, leading to constitutive active Wnt signaling. Stable transfectants were generated by cotransfection with pcDNA3 and selection of stable transfected cells with 1 mg/ml G418.
(§1) In preparation of the assay, the two cell lines were plated 24 hours before at 10000 cells per well of a 384 micro titre plate (MTP) in 30 μL growth medium. Selective inhibitory activity for small molecules on the mutated Wnt pathway was determined after parallel incubation of both (TOP and FOP) HCT116 reporter cell lines with a compound dilution series from 50 μM to 15 nM in steps of 3.16-fold dilutions in CAFTY buffer (130 mM NaCl, 5 mM KCl, 20 mM HEPES, 1 mM MgCl2, 5 mM NaHCO3, pH 7.4) containing 2 mM Ca^2+ and 0.01% BSA. The compounds were thereby serially prediluted in 100% DMSO and thereafter in addition 50 fold into the CAFTY compound dilution buffer (described above). From this dilution 10 μL were added to the cells in 30 μL growth medium and incubated for 36 hours at 37° C. and 5% CO2. Thereafter luciferase assay buffer (1:1 mixture of luciferase substrate buffer (20 mM Tricine, 2.67 mM MgSO4, 0.1 mM EDTA, 4 mM DTT, 270 μM Coenzyme A, 470 μM Luciferin, 530 μM ATP, ph adjusted to pH 7.8 with a sufficient volume of 5M NaOH) and Triton buffer (30 mL Triton X-100, 115 mL glycerol, 308 mg Dithiothreitol, 4.45 g Na2HPO4.2H2O, 3.03 g TRIS HCl, ad 1 l H20, pH 7.8) was added as equal volume to the compound solution on the cells to determine luciferase expression as a measure of Wnt signaling activity in a luminometer.

[2] = tested on: HCT116 FOPFlash; assay: Control reporter assay, HCT116 FOP control vector (non-functional TCF elements), luciferase expression; type: cell-based; settings: HCT116 FOP control reporter cells, 36 hours incubation, dilution series 50 μM to 15 nM
Procedure: In a parallel approach, HCT116 cells were cotransfected with the FOP control vector and pcDNA3. The FOP vector is identical to the TOP construct, but it contains instead of functional TCF elements a randomized, non-functional sequence. For this transfection a stable transfected cell line was generated as well.
as §1

SMILES	IC50 ([1]; Homo sapiens, HCT-116, 36 h) [nM]	IC50 ([2]; Homo sapiens, HCT-116, 36 h) [nM]	also measured
COc1ccc(NC(=O)c2ccc(-c3ccncc3)s2)cc1NC(=O)CN1CCOCC1 [Example 25, N-{4-methoxy-3-[(morpholin-4-ylacetyl)amino]phenyl}-5-(pyridin-4-yl)thiophene-2-carboxamide]	4400	≥ 50000	–
CN1CCN(C2(C(=O)Nc3cc(C(=O)Nc4nnc(-c5cccnc5)s4)ccc3Cl)CC2)CC1 [Example 26, 4-chloro-3-({[1-(4-methylpiperazin-1-yl)cyclopropyl]carbonyl}amino)-N-[5-(pyridin-3-yl)-1,3,4-thiadiazol-2-yl]benzamide]	500	≥ 50000	–
Cc1ncccc1-c1nnc(NC(=O)c2ccc(OC(F)(F)F)c(NC(=O)CN3CCN(C)CC3)c2)s1 [Example 27, 3-{[(4-methylpiperazin-1-yl)acetyl]amino}-N-[5-(2-methylpyridin-3-yl)-1,3,4-thiadiazol-2-yl]-4-(trifluoromethoxy)benzamide]	2700	≥ 50000	–
Cc1ncccc1-c1nnc(NC(=O)c2ccc(OC(F)(F)F)c(NC(=O)CN3CCOCC3)c2)s1 [Example 28, N-[5-(2-methylpyridin-3-yl)-1,3,4-thiadiazol-2-yl]-3-[(morpholin-4-ylacetyl)amino]-4-(trifluoromethoxy)benzamide]	1140	≥ 50000	–
CN1CCN(C2(C(=O)Nc3cc(C(=O)Nc4nnc(-c5cncnc5)s4)ccc3OC(F)(F)F)CC2)CC1 [Example 29, 3-({[1-(4-methylpiperazin-1-yl)cyclopropyl]carbonyl}amino)-N-[5-(pyrimidin-5-yl)-1,3,4-thiadiazol-2-yl]-4-(trifluoromethoxy)benzamide]	206	≥ 50000	–
O=C(Nc1nnc(-c2cncnc2)s1)c1ccc(OC(F)(F)F)c(NC(=O)C2(N3CCOCC3)CC2)c1 [Example 30, 3-({[1-(morpholin-4-yl)cyclopropyl]carbonyl}amino)-N-[5-(pyrimidin-5-yl)-1,3,4-thiadiazol-2-yl]-4-(trifluoromethoxy)benzamide]	535	≥ 50000	–
CN1CCN(CC(=O)Nc2cc(C(=O)Nc3nnc(-c4cnc(N)nc4)s3)ccc2OC(F)(F)F)CC1 [Example 31, N-[5-(2-aminopyrimidin-5-yl)-1,3,4-thiadiazol-2-yl]-3-{[(4-methylpiperazin-1-yl)acetyl]amino}-4-(trifluoromethoxy)benzamide]	973	≥ 50000	–
CN1CCN(C2(C(=O)Nc3cc(C(=O)Nc4nnc(-c5cnc(N)nc5)s4)ccc3OC(F)(F)F)CC2)CC1 [Example 32, N-[5-(2-aminopyrimidin-5-yl)-1,3,4-thiadiazol-2-yl]-3-({[1-(4-methylpiperazin-1-yl)cyclopropyl]carbonyl}amino)-4-(trifluoromethoxy)benzamide]	128	≥ 50000	–
Nc1ncc(-c2nnc(NC(=O)c3ccc(OC(F)(F)F)c(NC(=O)C4(N5CCOCC5)CC4)c3)s2)cn1 [Example 33, N-[5-(2-aminopyrimidin-5-yl)-1,3,4-thiadiazol-2-yl]-3-({[1-(morpholin-4-yl)cyclopropyl]carbonyl}amino)-4-(trifluoromethoxy)benzamide]	197	≥ 50000	–
CN1CCN(CC(=O)Nc2cc(C(=O)Nc3nnc(-c4cccnc4)s3)ccc2OC2CC2)CC1 [Example 34, 4-(cyclopropyloxy)-3-{[(4-methylpiperazin-1-yl)acetyl]amino}-N-[5-(pyridin-3-yl)-1,3,4-thiadiazol-2-yl]benzamide]	380	14000	–
O=C(CN1CCOCC1)Nc1cc(C(=O)Nc2nnc(-c3cccnc3)s2)ccc1OC1CC1 [Example 35, 4-(cyclopropyloxy)-3-[(morpholin-4-ylacetyl)amino]-N-[5-(pyridin-3-yl)-1,3,4-thiadiazol-2-yl]benzamide]	278	≥ 50000	–
Cc1ccncc1-c1nnc(NC(=O)c2ccc(OC(F)(F)F)c(NC(=O)CN3CCN(C)CC3)c2)s1 [Example 36, 3-{[(4-methylpiperazin-1-yl)acetyl]amino}-N-[5-(4-methylpyridin-3-yl)-1,3,4-thiadiazol-2-yl]-4-(trifluoromethoxy)benzamide hydrochloride (1:1)]	–	≥ 50000	IC50 [1]: 60 nM
Cc1ccncc1-c1nnc(NC(=O)c2ccc(OC(F)(F)F)c(NC(=O)CN3CCN(C)CC3)c2)s1 [Example 37, 3-{[(4-methylpiperazin-1-yl)acetyl]amino}-N-[5-(4-methylpyridin-3-yl)-1,3,4-thiadiazol-2-yl]-4-(trifluoromethoxy)benzamide]	–	–	IC50 [1]: 610 nM; IC50 [2]: ≥ 50000 nM
CN1CCN(CC(=O)Nc2cc(C(=O)Nc3nnc(-c4ccc(N)nc4)s3)ccc2OC(F)(F)F)CC1 [Example 38, N-[5-(6-aminopyridin-3-yl)-1,3,4-thiadiazol-2-yl]-3-{[(4-methylpiperazin-1-yl)acetyl]amino}-4-(trifluoromethoxy)benzamide]	268	≥ 50000	–
Cc1cncc(-c2nnc(NC(=O)c3ccc(OC(F)(F)F)c(NC(=O)CN4CCN(C)CC4)c3)s2)c1 [Example 39, 1-methyl-4-(2-{[5-{[5-(5-methylpyridin-3-yl)-1,3,4-thiadiazol-2-yl]carbamoyl}-2-(trifluoromethoxy)phenyl]amino}-2-oxoethyl)piperazin-1-ium hexafluorophosphate]	–	–	IC50 ([1]; Homo sapiens, HCT-116): 85.8 nM; IC50 ([2]; Homo sapiens, HCT-116): ≥ 50000 nM
CN1CCN(CC(=O)Nc2cc(C(=O)Nc3nnc(-c4cncc(Cl)c4)s3)ccc2OC(F)(F)F)CC1 [Example 40, formic acid-N-[5-(5-chloropyridin-3-yl)-1,3,4-thiadiazol-2-yl]-3-{[(4-methylpiperazin-1-yl)acetyl]amino}-4-(trifluoromethoxy)benzamide (1:1)]	114	≥ 50000	–
Cc1nccnc1-c1nnc(NC(=O)c2ccc(OC(F)(F)F)c(NC(=O)CN3CCN(C)CC3)c2)s1 [Example 41, 1-methyl-4-(2-{[5-{[5-(3-methylpyrazin-2-yl)-1,3,4-thiadiazol-2-yl]carbamoyl}-2-(trifluoromethoxy)phenyl]amino}-2-oxoethyl)piperazin-1-ium hexafluorophosphate]	–	–	IC50 ([1]; Homo sapiens, HCT-116): 860 nM; IC50 ([2]; Homo sapiens, HCT-116): ≥ 50000 nM
Cc1cccnc1-c1nnc(NC(=O)c2ccc(OC(F)(F)F)c(NC(=O)CN3CCN(C)CC3)c2)s1 [Example 42, 1-methyl-4-(2-{[5-{[5-(3-methylpyridin-2-yl)-1,3,4-thiadiazol-2-yl]carbamoyl}-2-(trifluoromethoxy)phenyl]amino}-2-oxoethyl)piperazin-1-ium hexafluorophosphate]	–	–	IC50 ([1]; Homo sapiens, HCT-116): 320 nM; IC50 ([2]; Homo sapiens, HCT-116): 38500 nM
CN1CCN(CC(=O)Nc2cc(C(=O)Nc3nnc(-c4ncccc4F)s3)ccc2OC(F)(F)F)CC1 [Example 43, 4-(2-{[5-{[5-(3-fluoropyridin-2-yl)-1,3,4-thiadiazol-2-yl]carbamoyl}-2-(trifluoromethoxy)phenyl]amino}-2-oxoethyl)-1-methylpiperazin-1-ium hexafluorophosphate]	–	–	IC50 ([1]; Homo sapiens, HCT-116): 2000 nM; IC50 ([2]; Homo sapiens, HCT-116): 32000 nM
Cc1nc(-c2nnc(NC(=O)c3ccc(OC(F)(F)F)c(NC(=O)CN4CCN(C)CC4)c3)s2)cs1 [Example 44, 3-{[(4-methylpiperazin-1-yl)acetyl]amino}-N-[5-(2-methyl-1,3-thiazol-4-yl)-1,3,4-thiadiazol-2-yl]-4-(trifluoromethoxy)benzamide]	423	≥ 50000	–
